What was measured:
Heat shock protein HSP90 = Heat shock protein HSP90 (Homo sapiens, UniProt P07900+P08238); test: Binding affinity to Hsp90 (unknown origin) assessed as dissociation constant incubated for 30 mins by fluorescence spectrophotometric analysis; format: protein assay
HCT-116 = test: Antiproliferative activity against human HCT-116 cells assessed as cell viability inhibition rate incubated for 72 hr by MTT assay; format: functional, cell-based; conditions: HCT-116, 72 h
A549 = test: Antiproliferative activity against human A549 cells assessed as cell viability inhibition rate incubated for 72 hr by MTT assay; format: functional, cell-based; conditions: A549, 72 h
MCF7 = test: Antiproliferative activity against human MCF7 cells assessed as cell viability inhibition rate incubated for 72 hr by MTT assay; format: functional, cell-based; conditions: MCF7, 72 h
SK-BR-3 = test: Antiproliferative activity against human SK-BR-3 cells assessed as cell viability inhibition rate incubated for 72 hr by MTT assay; format: functional, cell-based; conditions: SK-BR-3, 72 h
K562 = test: Antiproliferative activity against human K562 cells assessed as cell viability inhibition rate incubated for 72 hr by MTT assay; format: functional, cell-based; conditions: K562, 72 h

| SMILES | Kd (Heat shock protein HSP90) | IC50 (HCT-116) | IC50 (A549) | IC50 (MCF7) | IC50 (SK-BR-3) | IC50 (K562) |
| --- | --- | --- | --- | --- | --- | --- |
| CC(NC(=O)[C@H]1C[C@H](c2ccccc2)CN1C(=O)c1cc(C2CC2)c(O)cc1O)c1ccccc1 (stereo partly drawn) | 201 nM | 631 nM | 107 nM | 101 nM | 633 nM | 702 nM |
| CC(C)c1cc(C(=O)N2C[C@@H](c3ccccc3)C[C@@H]2C(=O)NCc2ccc3ccccc3n2)c(O)cc1O | 432 nM | 537 nM | 78 nM | 87 nM | 634 nM | 531 nM |
| CCOCCCNC(=O)[C@H]1C[C@H](c2ccccc2)CN1C(=O)c1cc(C(C)C)c(O)cc1O | 1098 nM | 1130 nM | 203 nM | 231 nM | 933 nM | 707 nM |
| O=C(NCc1ccc(F)cc1F)[C@H]1C[C@H](c2ccccc2)CN1C(=O)c1cc(C2CC2)c(O)cc1O | 157 nM | 272 nM | 54 nM | 37 nM | 256 nM | 378 nM |
| CC(C)c1cc(C(=O)N2C[C@@H](c3ccccc3)C[C@@H]2C(=O)NCc2ccccc2Cl)c(O)cc1O | 351 nM | 461 nM | 72 nM | 103 nM | 572 nM | 633 nM |
| COc1ccc(C(C)NC(=O)[C@H]2C[C@H](c3ccccc3)CN2C(=O)c2cc(C3CC3)c(O)cc2O)cc1 (stereo partly drawn) | 263 nM | 641 nM | 82 nM | 126 nM | 451 nM | 667 nM |
| CC(C)CNC(=O)[C@H]1C[C@H](c2ccccc2)CN1C(=O)c1cc(C2CC2)c(O)cc1O | 107 nM | 403 nM | 89 nM | 93 nM | 765 nM | 533 nM |
| O=C(NCc1ccccc1Cl)[C@H]1C[C@H](c2ccccc2)CN1C(=O)c1cc(C2CC2)c(O)cc1O | 236 nM | 301 nM | 42 nM | 76 nM | 331 nM | 457 nM |
| O=C(NCc1ccccc1)[C@H]1C[C@H](c2ccccc2)CN1C(=O)c1cc(C2CC2)c(O)cc1O | 67 nM | 461 nM | 42 nM | 63 nM | 307 nM | 451 nM |
| COCCN(CCOC)C(=O)[C@H]1C[C@H](c2ccccc2)CN1C(=O)c1cc(C2CC2)c(O)cc1O | 637 nM | 795 nM | 163 nM | 336 nM | 761 nM | 596 nM |
| COc1ccc(CNC(=O)[C@H]2C[C@H](c3ccccc3)CN2C(=O)c2cc(C3CC3)c(O)cc2O)cc1 | 168 nM | 631 nM | 113 nM | 167 nM | 631 nM | 561 nM |
| CC(C)C(C)NC(=O)[C@H]1C[C@H](c2ccccc2)CN1C(=O)c1cc(C2CC2)c(O)cc1O (stereo partly drawn) | 345 nM | 507 nM | 105 nM | 204 nM | 787 nM | 631 nM |

The next lines start with results.

| Kd (Heat shock protein HSP90) | SMILES | IC50 (HCT-116) | IC50 (A549) | IC50 (MCF7) | IC50 (SK-BR-3) | IC50 (K562) |
| --- | --- | --- | --- | --- | --- | --- |
| 1637 nM | CCCCN(C)C(=O)[C@H]1C[C@H](c2ccccc2)CN1C(=O)c1cc(C(C)C)c(O)cc1O | – | – | – | – | – |
| 1873 nM | CCN(C)C(=O)[C@H]1C[C@H](c2ccccc2)CN1C(=O)c1cc(C(C)C)c(O)cc1O | – | – | – | – | – |
| 188 nM | COCCNC(=O)[C@H]1C[C@H](c2ccccc2)CN1C(=O)c1cc(C(C)C)c(O)cc1O | – | – | – | – | – |
| 2331 nM | CC(C)c1cc(C(=O)N2C[C@@H](c3ccccc3)C[C@@H]2C(=O)N(C)Cc2ccccc2)c(O)cc1O | – | – | – | – | – |
| 2171 nM | CC(C)c1cc(C(=O)N2C[C@@H](c3ccccc3)C[C@@H]2C(=O)N2CCCCC2C)c(O)cc1O (stereo partly drawn) | – | – | – | – | – |
| 645 nM | CC(C)CCNC(=O)[C@H]1C[C@H](c2ccccc2)CN1C(=O)c1cc(C(C)C)c(O)cc1O | – | – | – | – | – |
| 1631 nM | CC(C)c1cc(C(=O)N2C[C@@H](c3ccccc3)C[C@@H]2C(=O)N2CCN(c3ncccn3)CC2)c(O)cc1O | – | – | – | – | – |
| 1762 nM | CC(C)c1cc(C(=O)N2C[C@@H](c3ccccc3)C[C@@H]2C(=O)N(C)C2CCCCC2)c(O)cc1O | – | – | – | – | – |
| 1021 nM | CC(C)c1cc(C(=O)N2C[C@@H](c3ccccc3)C[C@@H]2C(=O)N2CCN(C(C)C)CC2)c(O)cc1O | – | – | – | – | – |
| 1076 nM | CC(C)c1cc(C(=O)N2C[C@@H](c3ccccc3)C[C@@H]2C(=O)NC2CCCCC2)c(O)cc1O | – | – | – | – | – |
| 2310 nM | CC(C)c1cc(C(=O)N2C[C@@H](c3ccccc3)C[C@@H]2C(=O)N2CCN(C)CC2)c(O)cc1O | – | – | – | – | – |
| 1376 nM | CC(C)c1cc(C(=O)N2C[C@@H](c3ccccc3)C[C@@H]2C(=O)NCCCn2ccnc2)c(O)cc1O | – | – | – | – | – |
| 2033 nM | CC(C)c1cc(C(=O)N2C[C@@H](c3ccccc3)C[C@@H]2C(=O)N2CCCC2)c(O)cc1O | – | – | – | – | – |
| 1653 nM | CCCNC(=O)[C@H]1C[C@H](c2ccccc2)CN1C(=O)c1cc(C(C)C)c(O)cc1O | – | – | – | – | – |
| 431 nM | CCN(CC)CCNC(=O)[C@H]1C[C@H](c2ccccc2)CN1C(=O)c1cc(C(C)C)c(O)cc1O | – | – | – | – | – |
| 1237 nM | CC(C)NC(=O)[C@H]1C[C@H](c2ccccc2)CN1C(=O)c1cc(C(C)C)c(O)cc1O | – | – | – | – | – |

— ChEMBL document CHEMBL6153150, “Design, Synthesis, and Biological Evaluation of Chiral-Proline Derivatives as Novel HSP90 Inhibitors” (ACS Med Chem Lett, 2025)
